Data: patent publication US4051315A, “6"-Deoxykanamycin B and 6"-deoxytobramycin” (priority 1975, dated 1977)
Values after ≈ are worked out from the molar mass of the structure shown. Like-named read-outs stand apart in the source and are kept apart here.

Legend:
Assay type in all cases: cell-based
P. stuartii A20894 GAT-2 = assay: two-fold agar dilution MIC, Ps-2; conditions: Ps-2
P. aeruginosa GN-315 KAT = assay: two-fold agar dilution MIC, Pa-27
E. coli JR88 CAT-1 = assay: two-fold agar dilution MIC, Ec-62
E. coli NR79/W677 KAT = assay: two-fold agar dilution MIC, Ec-9; conditions: Escherichia coli, NR79/W677KAT
S. marcescens A20019 = assay: two-fold agar dilution MIC, Sm-1
E. coli R5 KAT = assay: two-fold agar dilution MIC, Ec-55
P. aeruginosa A9930 = assay: two-fold agar dilution MIC, Pa-3; conditions: Pseudomonas aeruginosa
E. coli A20732 GAS = assay: two-fold agar dilution MIC, Ec-72; conditions: Escherichia coli, A20732GAS
P. mirabilis A9554 CL-R = assay: two-fold agar dilution MIC, Pm-1
P. vulgaris A9436 = assay: two-fold agar dilution MIC, Pv-1
[1] = system: E. coli JR66/W677 NPT-2, GAS; assay: two-fold agar dilution MIC, Ec-53
[2] = system: Pseudomonas sp. A20621 KAT, NPT-1,2; assay: two-fold agar dilution MIC, Px-10
P. aeruginosa GN-4925 = assay: two-fold agar dilution MIC, Pa-45; conditions: Pseudomonas aeruginosa
S. aureus D133 SH, Sth-R = assay: two-fold agar dilution MIC, Sa-4
[3] = system: a variety of gram-positive and gram-negative bacteria; assay: antibacterial activity by two-fold agar dilution method, overall statement
[4] = system: P. aeruginosa #130 GAT-1, NPT; assay: two-fold agar dilution MIC, Pa-16
E. coli ML1630 NPT-1 = assay: two-fold agar dilution MIC, Ec-5; conditions: Escherichia coli
[5] = system: P. aeruginosa A20601 GAT-1; assay: two-fold agar dilution MIC, Pa-21; conditions: Pseudomonas aeruginosa
B. subtilis PCT-219 = assay: two-fold agar dilution MIC, Bs-1; conditions: Bacillus subtilis
[6] = system: P. aeruginosa A20896 GAT-3; assay: two-fold agar dilution MIC, Pa-24
E. coli P01495 CP.TC-R = assay: two-fold agar dilution MIC, Ec-2; conditions: Escherichia coli, P01495CP.TCR
K. pneumoniae D11 = assay: two-fold agar dilution MIC, Kp-1; conditions: Klebsiella pneumoniae
E. coli NIHJ = assay: two-fold agar dilution MIC, Ec-1
E. coli JR35/C600 NPT-1 = assay: two-fold agar dilution MIC, Ec-10
[7] = system: S. aureus D137 PC, TC, EM-R; assay: two-fold agar dilution MIC, Sa-9
[8] = system: K. pneumoniae 22-3038 NPT-2, GAS; assay: two-fold agar dilution MIC, Kp-8
S. aureus A20239 NPT-1,2 = assay: two-fold agar dilution MIC, Sa-10
S. aureus Smith = assay: two-fold agar dilution MIC, Sa-2; conditions: Staphylococcus aureus
E. coli A20107 NPT-2 = assay: two-fold agar dilution MIC, Ec-49; conditions: Escherichia coli
E. cloacae A21006 NPT-2 = assay: two-fold agar dilution MIC, E1-12
E. cloacae A20364 NPT-1 = assay: two-fold agar dilution MIC, E1-2; conditions: Enterobacter cloacae
[9] = system: S. marcescens A21247 NPT-1, GAS; assay: two-fold agar dilution MIC, Sm-16; conditions: Serratia marcescens
[10] = system: P. aeruginosa A20653 NPT-1,2; assay: two-fold agar dilution MIC, Pa-12; conditions: Pseudomonas aeruginosa
[11] = Staphylococcus aureus, Run 1, read-out: MIC

SMILES: CC1OC(OC2C(N)CC(N)C(OC3OC(CN)C(O)CC3N)C2O)C(O)C(N)C1O (centres unmarked) [compound 6, 6"-Deoxytobramycin]
- MIC (P. stuartii A20894 GAT-2; Providencia stuartii, A20894GAT2, Run 1, read-out: MIC): 25 µg/mL (≈ 55.4 µM)
- MIC (P. stuartii A20894 GAT-2; Run 2): 25 µg/mL (≈ 55.4 µM)
- MIC (P. aeruginosa GN-315 KAT; Pseudomonas aeruginosa, GN315, Run 2, read-out: MIC): > 100 µg/mL
- MIC (P. aeruginosa GN-315 KAT; Run 1): > 100 µg/mL
- MIC (E. coli JR88 CAT-1; Escherichia coli, JR88CAT1): 3.1 µg/mL (≈ 6.87 µM)
- MIC (E. coli JR88 CAT-1; Run 2, Ec-62): 3.1 µg/mL (≈ 6.87 µM)
- MIC (E. coli NR79/W677 KAT; Run 1): 1.6 µg/mL (≈ 3.54 µM)
- MIC (E. coli NR79/W677 KAT; Run 2): 0.8 µg/mL (≈ 1.77 µM)
- MIC (S. marcescens A20019; Run 2): 6.3 µg/mL (≈ 14 µM)
- MIC (S. marcescens A20019; Serratia marcescens, A20019, Run 1, read-out: MIC): 6.3 µg/mL (≈ 14 µM)
- MIC (E. coli R5 KAT; Escherichia coli, R5KAT): 0.4 µg/mL (≈ 0.886 µM)
- MIC (E. coli R5 KAT; Run 2, Ec-55): 0.4 µg/mL (≈ 0.886 µM)
- MIC (P. aeruginosa A9930; A9930, Run 1): 0.4 µg/mL (≈ 0.886 µM)
- MIC (P. aeruginosa A9930; A9930, Run 2): 0.4 µg/mL (≈ 0.886 µM)
- MIC (E. coli A20732 GAS; Run 1): 50 µg/mL (≈ 111 µM)
- MIC (E. coli A20732 GAS; Run 2): 25 µg/mL (≈ 55.4 µM)
- MIC (P. mirabilis A9554 CL-R; Proteus mirabilis, A9554CLR, Run 1, read-out: MIC): 0.8 µg/mL (≈ 1.77 µM)
- MIC (P. mirabilis A9554 CL-R; Run 2): 0.8 µg/mL (≈ 1.77 µM)
- MIC (P. vulgaris A9436; Proteus vulgaris, A9436, Run 1, read-out: MIC): 0.2 µg/mL (≈ 0.443 µM)
- MIC (P. vulgaris A9436; Run 2): 0.2 µg/mL (≈ 0.443 µM)
- MIC ([1]; Escherichia coli): 25 µg/mL (≈ 55.4 µM)
- MIC ([1]; Run 2, Ec-53): 25 µg/mL (≈ 55.4 µM)
- MIC ([2]; Pseudomonas, Run 1, read-out: MIC): 50 µg/mL (≈ 111 µM)
- MIC ([2]; Run 2): 50 µg/mL (≈ 111 µM)
- MIC (P. aeruginosa GN-4925; GN4925, Run 1): 100 µg/mL (≈ 221 µM)
- MIC (P. aeruginosa GN-4925; GN4925, Run 2): 100 µg/mL (≈ 221 µM)
- MIC (S. aureus D133 SH, Sth-R; Run 2): 1.6 µg/mL (≈ 3.54 µM)
- MIC (S. aureus D133 SH, Sth-R; [11]): 1.6 µg/mL (≈ 3.54 µM)
- antibacterial activity [3]: excellent antibacterial activity
- MIC ([4]; Pseudomonas aeruginosa, Run 1, read-out: MIC): 6.3 µg/mL (≈ 14 µM)
- MIC ([4]; Run 2): 6.3 µg/mL (≈ 14 µM)
- MIC (E. coli ML1630 NPT-1; ML1630NPT1, Run 1): 1.6 µg/mL (≈ 3.54 µM)
- MIC (E. coli ML1630 NPT-1; ML1630NPT1, Run 2): 0.8 µg/mL (≈ 1.77 µM)
- MIC ([5]; A20601GAT1, Run 1): 3.1 µg/mL (≈ 6.87 µM)
- MIC ([5]; A20601GAT1, Run 2): 3.1 µg/mL (≈ 6.87 µM)
- MIC (B. subtilis PCT-219; PCT219, Run 1): < 0.05 µg/mL
- MIC (B. subtilis PCT-219; PCT219, Run 2): < 0.05 µg/mL
- MIC ([6]; Pseudomonas aeruginosa, A20896GAT3, Run 1, read-out: MIC): > 100 µg/mL
- MIC ([6]; Run 2): > 100 µg/mL
- MIC (E. coli P01495 CP.TC-R; Run 1): 0.8 µg/mL (≈ 1.77 µM)
- MIC (E. coli P01495 CP.TC-R; Run 2): 0.8 µg/mL (≈ 1.77 µM)
- MIC (K. pneumoniae D11; D11, Run 1): 0.2 µg/mL (≈ 0.443 µM)
- MIC (K. pneumoniae D11; D11, Run 2): 0.4 µg/mL (≈ 0.886 µM)
- MIC (E. coli NIHJ; Escherichia coli, Run 1, read-out: MIC): 0.8 µg/mL (≈ 1.77 µM)
- MIC (E. coli NIHJ; Run 2): 0.8 µg/mL (≈ 1.77 µM)
- MIC (E. coli JR35/C600 NPT-1; Escherichia coli, JR35/C600NPT1): 0.8 µg/mL (≈ 1.77 µM)
- MIC (E. coli JR35/C600 NPT-1; Run 2, Ec-10): 0.8 µg/mL (≈ 1.77 µM)
- MIC ([7]; Run 2): 3.1 µg/mL (≈ 6.87 µM)
- MIC [7, 11]: 3.1 µg/mL (≈ 6.87 µM)
- MIC ([8]; Klebsiella pneumoniae, Run 1, read-out: MIC): 25 µg/mL (≈ 55.4 µM)
- MIC ([8]; Run 2): 25 µg/mL (≈ 55.4 µM)
- MIC (S. aureus A20239 NPT-1,2; Run 2, Sa-10): 0.8 µg/mL (≈ 1.77 µM)
- MIC (S. aureus A20239 NPT-1,2; Staphylococcus aureus): 0.8 µg/mL (≈ 1.77 µM)
- MIC (S. aureus Smith; Run 1): 0.2 µg/mL (≈ 0.443 µM)
- MIC (S. aureus Smith; Run 2): 0.1 µg/mL (≈ 0.221 µM)
- MIC (E. coli A20107 NPT-2; A20107NPT2, Run 1): 1.6 µg/mL (≈ 3.54 µM)
- MIC (E. coli A20107 NPT-2; A20107NPT2, Run 2): 0.8 µg/mL (≈ 1.77 µM)
- MIC (E. cloacae A21006 NPT-2; Enterobacter cloacae, A21006NPT2): 1.6 µg/mL (≈ 3.54 µM)
- MIC (E. cloacae A21006 NPT-2; Run 2, E1-12): 1.6 µg/mL (≈ 3.54 µM)
- MIC (E. cloacae A20364 NPT-1; A20364NPT1, Run 1): 1.6 µg/mL (≈ 3.54 µM)
- MIC (E. cloacae A20364 NPT-1; A20364NPT1, Run 2): 1.6 µg/mL (≈ 3.54 µM)
- MIC ([9]; Run 1): 100 µg/mL (≈ 221 µM)
- MIC ([9]; Run 2): 50 µg/mL (≈ 111 µM)
- MIC ([10]; Run 1): 6.3 µg/mL (≈ 14 µM)
- MIC ([10]; Run 2): 3.1 µg/mL (≈ 6.87 µM)
